# Experimental data reported in US20260193619A1, “CULTURE MEDIUM COMPOSITION” (priority 2023, published 2026).
# Key:
# Human adenovirus 32 = experiment: Production of adenovirus in HEK293 by adding sodium dichloroacetate in suspension culture system; type: cell-based; settings: HEK293 2.sus, CDM4HEK293 with or without sodium dichloroacetate, MOI 0.1
# Description: In the following Example, the ability of human embryonic kidney cell 293 (HEK293) to produce adenovirus can be evaluated using sodium dichloroacetate. […] The cell number is measured using a hemocytometer and glutamine-containing 293 SFM II is added to 3×10^5 cells/mL. […] The cell number is measured using a hemocytometer and the culture solution is added to 3×10^5 cells/mL. 5 ML of the adjusted cell suspension is added to two Petri dishes and culturing with shaking (50 rpm) is performed in a CO2 incubator for 3-4 days. • (11) After culturing, steps (8) to (10) are repeated three times. • (12) After culturing for 3 days, the cell number is measured (FIG. 1) and adjusted to 1×10^5 cells/ml using CDM4HEK293 with or without addition of sodium dichloroacetate, and 5 mL thereof is added per Petri dish. […]
# HEK293 = experiment: Effect of sodium dichloroacetate on proliferation of HEK293 in suspension culture (viable cell density); type: cell-based, human; settings: HEK293 (Viral Production Cells 2.0), Viral Production Medium + 5 mM sodium dichloroacetate vs medium without, 3 days, FIG. 1
# Description: (§1) In the following Example 1, the ability of human embryonic kidney cell 293 (HEK293) to produce AAV was evaluated using sodium dichloroacetate. The reagents, cells, and medium used are as follows: • Sodium dichloroacetate: Sodium dichloroacetate (FUJIFILM Wako Pure Chemical Industries, Ltd., 326-87772) • HEK293: Viral Production Cells 2.0 (Thermo Fisher Scientific, A49784) • medium for HEK293: Viral Production Medium (Thermo Fisher Scientific: A4817901)
# (§2) Viral Production Cells 2.0 were seeded in 30 mL of Viral Production Medium supplemented with GlutaMAXIM Supplement (Thermo Fisher Scientific: 35050061) to a final concentration of 4 mM in a 125 mL Erlenmeyer flask (VIOLAMO, SEF125V). The cells were then cultured in an incubator set at 37° C., 8% CO2 under stirring for two passages. […] On day 3, the number of viable cells was measured using a viable cell autoanalyzer Vi-CELL BLU (manufactured by Becman). […] 2 (Takara Bio: 6233), and the AAV8 genome titer was measured using 7500 Fast Real-Time PCR System (Thermo Fisher Scientific: 4357362). In addition, the number of viral particles was also measured using AAV-8 Titration ELISA Kit (PROGEN Biotechnik: PRAAV8). The full/empty capsid ratio (full capsid ratio) was calculated therefrom.
# AAV8 = experiment: Production of AAV8 in HEK293 by adding sodium dichloroacetate (genome titer by real-time PCR, particles by ELISA, full capsid ratio); type: cell-based, human; settings: HEK293, 5 mM sodium dichloroacetate, 3 days after transfection, medium without DCA = 100%
# Description: as §1, §2
smiles,measurement,setting,value
"O=C([O-])C(Cl)Cl.[Na+] [sodium dichloroacetate, Sodium dichloroacetate]",adenovirus titer,Human adenovirus 32,Improvement
same,cell proliferation (viable cell density before dilution on day 3 after seeding),HEK293,slightly inhibited cell proliferation
same,AAV8 genome titer (relative),AAV8; FIG. 2,improvements
same,full capsid ratio (relative),AAV8; FIG. 3,improvements
